According to patent US20090325964A1, “Piperazine Metabotropic Glutamate Receptor 5 (MGLUR5) Negative Allosteric Modulators For Anxiety/Depression” (Wyeth, priority 2008, published 2009):
Like-named read-outs stand apart in the source and are kept apart here.

Biological target: T1, rat mGluR5 receptor (Rattus norvegicus, UniProt P31424)
T1 construct: expressed in transfected cells; host or cells: HEK-293
Assay: [3H]-MPEP displacement binding assay, HEK-293 cell membranes expressing rat mGluR5
Conditions: for Ki: read-out: Median Ki
Method: MGluR5 expressing HEK-293 cells were scraped off a plate, transferred to centrifuge tubes and washed twice by centrifugation (2000 rpm for 10 minutes, at 4° C.) in buffer (50 mM Tris pH 7.5). The resulting pellets were aliquoted and stored at minus 80° C. On the day of assay, the cells were thawed on ice and re-suspended in buffer. The binding assay was performed in a 96 well microtiter plate in a total volume of […]. Non-specific binding was determined in the presence of 10 μM MPEP. The binding reaction included a final radioligand [^3H]-MPEP concentration of 4 nM and 12-25 μg membrane protein per well. Following a 60 minute incubation at room temperature, the reaction was terminated by the addition of ice cold buffer and rapid filtration through a GF/B filter that had been presoaked for 30 minutes in 0.5% PEI. Compounds were initially tested in a single point assay to determine percent inhibition at 10 μM.
Percent inhibition and Ki values were generated by GraphPad Prism and Excel Fit. IC50 values were calculated using GraphPad by fitting to a 1 or 2 site-binding model.
where [L] is the concentration of free radioligand and Kd is the dissociation constant of radioligand for the receptor.

[1] = 1 h, single point, @ 10 μm compound, Table 1A, read-out: PCT INHIB (%) @ 10 μm
[2] = single point, @ 10 μM compound, Table 6, read-out: PCT INHIB (%) @ 10 μM
[3] = [3H]-MPEP displacement, rat mGluR5
[4] = @ 10 μM compound, Biological Activity, Table 2A, read-out: PCT INHIB (%) @ 10 μM

T1 sequence (P31424 21-1203): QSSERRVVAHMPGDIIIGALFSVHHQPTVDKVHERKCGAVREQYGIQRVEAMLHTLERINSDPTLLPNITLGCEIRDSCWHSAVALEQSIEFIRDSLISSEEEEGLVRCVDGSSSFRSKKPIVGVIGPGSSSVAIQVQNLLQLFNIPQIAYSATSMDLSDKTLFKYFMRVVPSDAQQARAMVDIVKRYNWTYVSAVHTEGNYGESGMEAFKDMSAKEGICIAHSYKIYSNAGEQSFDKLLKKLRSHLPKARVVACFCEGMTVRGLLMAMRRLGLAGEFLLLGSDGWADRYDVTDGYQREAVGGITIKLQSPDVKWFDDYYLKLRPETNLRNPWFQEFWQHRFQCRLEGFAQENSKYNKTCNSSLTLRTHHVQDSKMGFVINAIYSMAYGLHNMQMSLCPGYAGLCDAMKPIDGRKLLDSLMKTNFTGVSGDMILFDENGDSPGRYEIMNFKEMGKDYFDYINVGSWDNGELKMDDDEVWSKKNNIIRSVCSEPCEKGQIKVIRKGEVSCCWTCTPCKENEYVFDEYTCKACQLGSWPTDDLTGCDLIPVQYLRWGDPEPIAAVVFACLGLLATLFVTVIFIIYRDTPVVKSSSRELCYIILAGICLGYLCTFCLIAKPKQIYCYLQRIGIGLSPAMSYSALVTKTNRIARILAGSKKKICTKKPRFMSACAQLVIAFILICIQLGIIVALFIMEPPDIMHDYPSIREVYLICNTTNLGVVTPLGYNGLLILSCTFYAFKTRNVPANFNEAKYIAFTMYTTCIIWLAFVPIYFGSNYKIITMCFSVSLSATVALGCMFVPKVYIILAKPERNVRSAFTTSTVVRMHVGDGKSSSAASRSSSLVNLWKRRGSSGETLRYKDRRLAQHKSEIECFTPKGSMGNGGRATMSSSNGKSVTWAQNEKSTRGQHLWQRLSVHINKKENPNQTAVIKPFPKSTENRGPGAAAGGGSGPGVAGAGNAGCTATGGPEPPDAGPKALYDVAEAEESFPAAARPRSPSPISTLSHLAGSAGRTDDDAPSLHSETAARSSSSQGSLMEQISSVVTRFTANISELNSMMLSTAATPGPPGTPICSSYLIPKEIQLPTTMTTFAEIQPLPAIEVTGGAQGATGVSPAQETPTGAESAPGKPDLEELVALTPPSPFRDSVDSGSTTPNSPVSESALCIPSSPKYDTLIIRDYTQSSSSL

An inhibition at 10 µM [1] of 74% and a Ki of 0.0547 µM were found for `COc1ccc(C(=O)N2CCN(c3ccccn3)CC2)cc1C#Cc1ccc(F)c(C)c1` [Compound 37, 1-{3-[(4-fluoro-3-methylphenyl)ethynyl]-4-methoxybenzoyl}-4-pyridin-2-ylpiperazine] in this work.

An inhibition at 10 µM [2] of 13% was found for `Oc1cccc(C#Cc2cccc(CN3CCN(c4ccccn4)CC3)c2)c1` [Compound 177, 3-({3-[(4-pyridin-2-ylpiperazin-1-yl)methyl]phenyl}ethynyl)phenol] in this work.

A Ki [3] of 0.199 µM was found for `COc1ccc(C(=O)N2CCN(c3nnc(-c4ccccc4)[nH]3)CC2)cc1C#Cc1ccccn1` [Compound 291, 1-[4-methoxy-3-(pyridin-2-ylethynyl)benzoyl]-4-(5-phenyl-4H-1,2,4-triazol-3-yl)piperazine] in this work.

An inhibition at 10 µM (single point, @ 10 μM compound, Table 5, read-out: PCT INHIB (%) @ 10 μM) of 0% was found for `O=S(=O)(c1cccc(C#Cc2cccc(O)c2)c1)N1CCN(c2ccccn2)CC1` [Compound 172, 3-({3-[(4-pyridin-2-ylpiperazin-1-yl)sulfonyl]phenyl}ethynyl)phenol] in this work.

An inhibition at 10 µM [1] of 0% was found for `COc1cc(C#Cc2cc(C(=O)N3CCN(c4ccccn4)CC3)ccc2OC)cc(OC)c1` [Compound 20, 1-{3-[(3,5-dimethoxyphenyl)ethynyl]-4-methoxybenzoyl}-4-pyridin-2-ylpiperazine] in this work.

An inhibition at 10 µM [1] of 0% was found for `Cc1ccccc1C#Cc1cccc(C(=O)N2CCN(c3ccccn3)CC2)c1` [Compound 4, 1-{3-[(2-methylphenyl)ethynyl]benzoyl}-4-pyridin-2-ylpiperazine] in this work.

A Ki [3] of 0.27 µM was found for `O=C(c1ccc(F)c(C#Cc2ccccn2)c1)N1CCN(c2ncccc2Cl)CC1` [Compound 315, 1-(3-chloropyridin-2-yl)-4-[4-fluoro-3-(pyridin-2-ylethynyl)benzoyl]piperazine] in this work.

An inhibition at 10 µM [4] of 72% and a Ki (Biological Activity, Table 2A) of 2.76 µM were found for `O=C(c1cccc(C#Cc2ccccn2)c1)N1CCN(c2ncc(C(F)(F)F)cc2Cl)CC1` [Compound 149, 1-[3-chloro-5-(trifluoromethyl)pyridin-2-yl]-4-[3-(pyridin-2-ylethynyl)benzoyl]piperazine] in this work.

A Ki [3] of 1.74 µM was found for `COc1ccc(C(=O)N2CCN(S(=O)(=O)c3cccc4c(N(C)C)cccc34)CC2)cc1C#Cc1ccccn1` [Compound 273, 5-({4-[4-methoxy-3-(pyridin-2-ylethynyl)benzoyl]piperazin-1-yl}sulfonyl)-N,N-dimethylnaphthalen-1-amine] in this work.

A Ki [3] of 0.239 µM was found for `COc1ccc(C(=O)N2CCN(c3ncccn3)CC2)cc1C#Cc1cccc([N+](=O)[O-])c1` [Compound 357, 2-(4-{4-methoxy-3-[(3-nitrophenyl)ethynyl]benzoyl}piperazin-1-yl)pyrimidine] in this work.

An inhibition at 10 µM (single point, @ 10 μM compound, Table 3A, read-out: PCT INHIB (%) @ 10 μM) of 11% was found for `COc1ccc(C(=O)N2CCN(c3ccccn3)CC2)cc1OCc1cccc(Cl)c1` [Compound 160, 1-{3-[(3-chlorobenzyl)oxy]-4-methoxybenzoyl}-4-pyridin-2-ylpiperazine] in this work.

An inhibition at 10 µM [1] of 86% and a Ki of 0.322 µM were found for `COc1cccc(C#Cc2cc(C(=O)N3CCN(c4ccccn4)CC3)ccc2C)c1` [Compound 26, 1-{3-[(3-methoxyphenyl)ethynyl]-4-methylbenzoyl}-4-pyridin-2-ylpiperazine] in this work.

A Ki of 0.0491 µM was found for `Cc1ccc(C(=O)N2CCN(c3cnccn3)CC2)cc1C#Cc1cccc(Cl)c1` [Compound 67, 2-(4-{3-[(3-chlorophenyl)ethynyl]-4-methylbenzoyl}piperazin-1-yl)pyrazine] in this work.

A Ki [3] of 0.115 µM was found for `COc1ccc(C(=O)N2CCN(S(=O)(=O)c3ccccc3)CC2)cc1C#Cc1ccccn1` [Compound 224, 1-[4-methoxy-3-(pyridin-2-ylethynyl)benzoyl]-4-(phenylsulfonyl)piperazine] in this work.

A Ki [3] of 1.01 µM was found for `COc1ccc(C(=O)N2CCN(c3cc(C)ccc3C)CC2)cc1C#Cc1ccccn1` [Compound 242, 1-(2,5-dimethylphenyl)-4-[4-methoxy-3-(pyridin-2-ylethynyl)benzoyl]piperazine] in this work.

A Ki [3] of 0.139 µM was found for `COc1ccc(C(=O)N2CCN(c3nnc([N+](=O)[O-])s3)CC2)cc1C#Cc1ccccn1` [Compound 276, 1-[4-methoxy-3-(pyridin-2-ylethynyl)benzoyl]-4-(5-nitro-1,3,4-thiadiazol-2-yl)piperazine] in this work.

An inhibition at 10 µM [1] of 71% and a Ki of 1.29 µM were found for `Cc1ccc(C(=O)N2CCN(c3ccccn3)CC2)cc1C#CC1=CCCCC1` [Compound 24, 1-[3-(cyclohex-1-en-1-ylethynyl)-4-methylbenzoyl]-4-pyridin-2-ylpiperazine] in this work.

An inhibition at 10 µM [4] of 74% and a Ki (Biological Activity, Table 2A) of 1.63 µM were found for `N#Cc1cccnc1N1CCN(C(=O)c2cccc(C#Cc3ccccn3)c2)CC1` [Compound 148] in this work.

A Ki of 0.00884 µM was found for `Cc1ccc(C(=O)N2CCN(c3cnccn3)CC2)cc1C#Cc1ccccn1` [Compound 68, 2-{4-[4-methyl-3-(pyridin-2-ylethynyl)benzoyl]piperazin-1-yl}pyrazine] in this work.

An inhibition at 10 µM [4] of 49% was found for `Cc1cccc(N2CCN(C(=O)c3cncc(C#Cc4ccccc4)c3)CC2)n1` [Compound 143, 1-(6-methylpyridin-2-yl)-4-{(5-(phenylethynyl)pyridin-3-yl]carbonyl}piperazine] in this work.

An inhibition at 10 µM [4] of 0% was found for `O=C(c1cccc(C#Cc2ccccc2)c1)N1CCN(c2ccc(C(F)(F)F)cn2)CC1` [Compound 108, 1-[3-(phenylethynyl)benzoyl]-4-[5-(trifluoromethyl)pyridin-2-yl]piperazine] in this work.

An inhibition at 10 µM [1] of 79% and a Ki of 0.076 µM were found for `Cc1ccc(C(=O)N2CCN(c3ccccn3)CC2)cc1C#Cc1cccc(Cl)c1` [Compound 28, 1-{3-[(3-chlorophenyl)ethynyl]-4-methylbenzoyl}-4-pyridin-2-ylpiperazine] in this work.

An inhibition at 10 µM [4] of 18% was found for `Cc1c(C#Cc2ccccc2)cccc1C(=O)N1CCN(c2ccccn2)CC1` [Compound 91, 1-[2-methyl-3-(phenylethynyl)benzoyl]-4-pyridin-2-ylpiperazine] in this work.

A Ki ([3H]-MPEP displacement, rat mGluR5 membranes) of 2.92 µM was found for `O=C(c1ccc(C(F)(F)F)c(C#Cc2ccccn2)c1)N1CCN(c2ncc(Cl)cc2Cl)CC1` [Compound 368, 1-(3,5-dichloropyridin-2-yl)-4-{[3-(pyridin-2-ylethynyl)-4-(trifluoromethyl)phenyl]carbonyl}piperazine] in this work.

A Ki of 0.0217 µM was found for `COc1ccc(C(=O)N2CCN(c3cnccn3)CC2)cc1C#Cc1cccc(F)c1` [Compound 61, 2-(4-{3-[(3-fluorophenyl)ethynyl]-4-methoxybenzoyl}piperazin-1-yl)pyrazine] in this work.

An inhibition at 10 µM [1] of 92% and a Ki of 0.0339 µM were found for `COc1ccc(C(=O)N2CCN(c3cnccn3)CC2)cc1C#CCc1ccccc1` [Compound 51, 2-{4-[4-methoxy-3-(3-phenylprop-1-yn-1-yl)benzoyl]piperazin-1-yl}pyrazine] in this work.

An inhibition at 10 µM [4] of 52% and a Ki (Biological Activity, Table 2A) of 2.35 µM were found for `COc1cccnc1N1CCN(C(=O)c2cccc(C#Cc3ccccn3)c2)CC1` [Compound 101, 1-(3-methoxypyridin-2-yl)-4-[3-(pyridin-2-ylethynyl)benzoyl]piperazine] in this work.

An inhibition at 10 µM [1] of 82% and a Ki of 0.541 µM were found for `COc1ccc(C(=O)N2CCN(c3ccccn3)CC2)cc1C#Cc1cccc(O)c1` [Compound 33, 3-({2-methoxy-5-[(4-pyridin-2-ylpiperazin-1-yl)carbonyl]phenyl}ethynyl)phenol] in this work.

An inhibition at 10 µM [4] of 80% and a Ki (Biological Activity, Table 2A) of 3.02 µM were found for `Cc1cccc(N2CCN(C(=O)c3cccc(C#Cc4ccccn4)c3)CC2)n1` [Compound 147, 1-(6-methylpyridin-2-yl)-4-[3-(pyridin-2-ylethynyl)benzoyl]piperazine] in this work.

An inhibition at 10 µM [1] of 45% was found for `O=C(c1cccc(C#Cc2ccc(Cl)cc2)c1)N1CCN(c2ccccn2)CC1` [Compound 3, 1-{3-[(4-chlorophenyl)ethynyl]benzoyl}-4-pyridin-2-ylpiperazine] in this work.

An inhibition at 10 µM [2] of 0% was found for `C(#Cc1cccc(CN2CCN(c3ccccn3)CC2)c1)C1=CCCCC1` [Compound 178, 1-[3-(cyclohex-1-en-1-ylethynyl)benzyl]-4-pyridin-2-ylpiperazine] in this work.

An inhibition at 10 µM [2] of 0% was found for `C(#Cc1cccc(CN2CCN(c3ccccn3)CC2)c1)Cc1ccccc1` [Compound 179, 1-[3-(3-phenylprop-1-yn-1-yl)benzyl]-4-pyridin-2-ylpiperazine] in this work.

`COc1ccc(C(=O)N2CCN(c3ncccc3Cl)CC2)cc1C#Cc1ccccc1[N+](=O)[O-]` [Compound 342, 1-(3-chloropyridin-2-yl)-4-{4-methoxy-3-[(2-nitrophenyl)ethynyl]benzoyl}piperazine] was tested, and the IC50 ([3H]-MPEP displacement, rat mGluR5, no Ki given, read-out: IC50 (printed in the Median Ki column instead of a Ki)) was > 10 µM.

An inhibition at 10 µM [4] of 71% and a Ki (Biological Activity, Table 2A) of 1.46 µM were found for `O=C(c1cccc(C#Cc2ccccn2)c1)N1CCN(c2cncc(Cl)n2)CC1` [Compound 104, 2-chloro-6-{4-[3-(pyridin-2-ylethynyl)benzoyl]piperazin-1-yl}pyrazine] in this work.

An inhibition at 10 µM [1] of 97% and a Ki of 0.006 µM were found for `COc1ccc(C(=O)N2CCN(c3ccccn3)CC2)cc1C#Cc1cccc(Cl)c1` [Compound 19, 1-{3-[(3-chlorophenyl)ethynyl]-4-methoxybenzoyl}-4-pyridin-2-ylpiperazine] in this work.
